Assay results taken from ChEMBL document CHEMBL1122994, “Effect of structural modification of the hydantoin ring on anticonvulsant activity” (J Med Chem, 1985).
The source made the active and inactive calls. The rule behind the calls is not given here.

Columns and labels:
Mus musculus [1] = experiment: Anticonvulsant activity was evaluated by Neurologic toxicity (the rotarod test) at dose 600 mg/kg; No activity; type: functional
Mus musculus [2] = experiment: Anticonvulsant activity was evaluated by maximal electroshock seizure (MES) test at dose 600 mg/kg; No activity; type: functional
Mus musculus [3] = experiment: Anticonvulsant activity was evaluated by subcutaneous pentylenetetrazole (Metrazol) (sc Met) seizure test at dose 600 mg/kg; No activity; type: functional
Mus musculus [4] = experiment: Anticonvulsant activity was evaluated by Neurologic toxicity (the rotarod test) at dose 600 mg/kg; 1=Noticeable activity; type: functional
Mus musculus [5] = experiment: Anticonvulsant activity was evaluated by maximal electroshock seizure (MES) test at dose 600 mg/kg; 1=Noticeable activity; type: functional
Mus musculus [6] = experiment: Anticonvulsant activity was evaluated by subcutaneous pentylenetetrazole (Metrazol) (sc Met) seizure test at dose 600 mg/kg; 1=Noticeable activity; type: functional
Mus musculus [7] = experiment: Anticonvulsant activity was evaluated by subcutaneous pentylenetetrazole (Metrazol) (sc Met) seizure test at dose 300 mg/kg; 2=Noticeable activity; type: functional
Mus musculus [8] = experiment: Anticonvulsant activity was evaluated by maximal electroshock seizure (MES) test at dose 300 mg/kg; 2=Noticeable activity; type: functional
Mus musculus [9] = organism: Mus musculus; experiment: Effective dose was evaluated by maximal electroshock seizure (MES) test; type: functional
Mus musculus [10] = experiment: Anticonvulsant activity was evaluated by Neurologic toxicity (the rotarod test) at dose 300 mg/kg; 2=Noticeable activity; type: functional
Mus musculus [11] = experiment: Anticonvulsant activity was evaluated by maximal electroshock seizure (MES) test at dose 100 mg/kg; 3=Noticeable activity; type: functional
[12] = Toxic dose was evaluated by neurological toxicity (the rotarod test); type: organism-based; conditions: mouse, in vivo
Mus musculus [13] = experiment: Effective dose was evaluated by subcutaneous pentylenetetrazole (Metrazol) (sc Met) seizure test; type: functional
Mus musculus [14] = experiment: Anticonvulsant activity was evaluated by subcutaneous pentylenetetrazole (Metrazol) (sc Met) seizure test at dose 100 mg/kg; 3=Noticeable activity; type: functional
Mus musculus [15] = experiment: Effective dose was evaluated by subcutaneous pentylenetetrazole (Metrazol) (sc Met) seizure test; NE means not effective; type: functional, organism-based
Mus musculus [16] = experiment: Anticonvulsant activity was evaluated by subcutaneous pentylenetetrazole (Metrazol) (sc Met) seizure test at dose 30 mg/kg; type: functional

COc1ccc2c(c1)CCCN1C(=O)NC(C)(C)C21 (centres undefined)
Activity (Mus musculus [1]): 0 | Activity (Mus musculus [2]): 0 | Activity (Mus musculus [3]): 0

O=C1NCC(O)N1c1ccccc1 (centres undefined)
Activity (Mus musculus [1]): 0 | Activity (Mus musculus [2]): 0 | Activity (Mus musculus [3]): 0

CC1NC(=O)N(c2ccccc2)C1O (centres undefined)
Activity (Mus musculus [4]): 1 | Activity (Mus musculus [5]): 1 | Activity (Mus musculus [6]): 1

COc1cccc(CCCN2C(=O)NC(C)(C)C2O)c1 (centres undefined)
Activity (Mus musculus [4]): 1 | Activity (Mus musculus [7]): 2 | Activity (Mus musculus [8]): 2

COc1cccc(CN2C(=O)NC(C)(C)C2=O)c1
Activity (Mus musculus [1]): 0 | Activity (Mus musculus [5]): 1 | Activity (Mus musculus [3]): 0

Oc1nc(-c2ccccc2)cn1-c1ccccc1
Activity (Mus musculus [1]): 0 | Activity (Mus musculus [2]): 0 | Activity (Mus musculus [7]): 2

Oc1nc(-c2ccccc2)cn1Cc1ccccc1
Activity (Mus musculus [1]): 0 | Activity (Mus musculus [2]): 0 | Activity (Mus musculus [3]): 0

CC1NC(=O)N(Cc2ccccc2)C1O (centres undefined)
Activity (Mus musculus [4]): 1 | Activity (Mus musculus [8]): 2 | Activity (Mus musculus [6]): 1

CC1NC(=O)NC1=O (centres undefined)
Activity (Mus musculus [1]): 0 | Activity (Mus musculus [2]): 0 | Activity (Mus musculus [3]): 0

O=C1NC(c2ccccc2)C(O)N1c1ccccc1 (centres undefined)
Activity (Mus musculus [1]): 0 | Activity (Mus musculus [2]): 0 | Activity (Mus musculus [3]): 0

O=C1NC(c2ccccc2)C(=O)N1Cc1ccccc1 (centres undefined)
Activity (Mus musculus [1]): 0 | Activity (Mus musculus [2]): 0 | Activity (Mus musculus [3]): 0

CN1C(=O)NC(c2ccccc2)C1O (centres undefined)
Activity (Mus musculus [1]): 0 | Activity (Mus musculus [7]): 2 | Activity (Mus musculus [6]): 1

Cc1cn(-c2ccccc2)c(O)n1
Activity (Mus musculus [4]): 1 | Activity (Mus musculus [5]): 1 | Activity (Mus musculus [3]): 0

O=C1NCC(O)N1Cc1ccccc1 (centres undefined)
Activity (Mus musculus [1]): 0 | Activity (Mus musculus [5]): 1 | Activity (Mus musculus [3]): 0

CC1NC(=O)N(C)C1=O (centres undefined)
Activity (Mus musculus [1]): 0 | Activity (Mus musculus [2]): 0 | Activity (Mus musculus [3]): 0

CC1NC(=O)N(c2ccccc2)C1=O (centres undefined)
Activity (Mus musculus [4]): 1 | Activity (Mus musculus [2]): 0 | Activity (Mus musculus [3]): 0

Oc1nccn1-c1ccccc1
ED50 (Mus musculus [9]): 124 mg/kg | Activity (Mus musculus [10]): 2 | Activity (Mus musculus [7]): 2 | Activity (Mus musculus [11]): 3 | TD50 [12]: 211 mg/kg | ED50 (Mus musculus [13]): 173 mg/kg

CC1C(O)N(C)C(=O)N1C (centres undefined)
Activity (Mus musculus [1]): 0 | Activity (Mus musculus [2]): 0 | Activity (Mus musculus [3]): 0

CNC(C)CNCc1ccccc1 (centres undefined)
Activity (Mus musculus [2]): 0 | Activity (Mus musculus [10]): 2 | Activity (Mus musculus [3]): 0

COc1cccc(CCCN2C(=O)NC(C)(C)C2=O)c1
Activity (Mus musculus [10]): 2 | Activity (Mus musculus [8]): 2 | Activity (Mus musculus [6]): 1

Cc1cn(C)c(O)n1
Activity (Mus musculus [1]): 0 | Activity (Mus musculus [2]): 0 | Activity (Mus musculus [3]): 0

O=C1CNC(=O)N1Cc1ccccc1
ED50 (Mus musculus [9]): 65 mg/kg | Activity (Mus musculus [10]): 2 | Activity (Mus musculus [7]): 2 | Activity (Mus musculus [11]): 3 | TD50 [12]: 224 mg/kg | ED50 (Mus musculus [13]): 114 mg/kg

CN1C(=O)NC(c2ccccc2)C1=O (centres undefined)
ED50 (Mus musculus [9]): 75 mg/kg | Activity (Mus musculus [4]): 1 | Activity (Mus musculus [14]): 3 | Activity (Mus musculus [11]): 3 | TD50 [12]: 271 mg/kg | ED50 (Mus musculus [13]): 26 mg/kg

O=C1NC(=O)C(c2ccccc2)N1 (centres undefined)
ED50 (Mus musculus [9]): 156 mg/kg | Activity (Mus musculus [4]): 1 | Activity (Mus musculus [14]): 3 | Activity (Mus musculus [8]): 2 | TD50 [12]: 399 mg/kg | ED50 (Mus musculus [13]): 109 mg/kg

O=C1NC(=O)C(c2ccccc2)(c2ccccc2)N1 [PHENYTOIN]
ED50 (Mus musculus [9]): 10 mg/kg | ED50 (Mus musculus [15]): inactive

CC1(C)NC(=O)N(CCc2ccccc2)C1=O
ED50 (Mus musculus [9]): 110 mg/kg | Activity (Mus musculus [10]): 2 | Activity (Mus musculus [7]): 2 | Activity (Mus musculus [11]): 3 | TD50 [12]: 243 mg/kg | ED50 (Mus musculus [13]): 130 mg/kg

NC(=O)NC(=O)Cc1ccccc1 [PHENACEMIDE]
ED50 (Mus musculus [9]): 87 mg/kg

Cn1ccnc1O
Activity (Mus musculus [1]): 0 | Activity (Mus musculus [2]): 0 | Activity (Mus musculus [3]): 0

O=C1NC(c2ccccc2)C(O)N1Cc1ccccc1 (centres undefined)
Activity (Mus musculus [1]): 0 | Activity (Mus musculus [2]): 0 | Activity (Mus musculus [3]): 0

COc1cccc(CN2C(=O)NC(C)(C)C2O)c1 (centres undefined)
Activity (Mus musculus [1]): 0 | Activity (Mus musculus [5]): 1 | Activity (Mus musculus [3]): 0

CNC(=O)C(N)c1ccccc1 (centres undefined)
Activity (Mus musculus [1]): 0 | Activity (Mus musculus [2]): 0 | Activity (Mus musculus [3]): 0

CN1C(=O)NCC1O (centres undefined)
Activity (Mus musculus [1]): 0 | Activity (Mus musculus [2]): 0 | Activity (Mus musculus [3]): 0

CC1NC(=O)N(Cc2ccccc2)C1=O (centres undefined)
Activity (Mus musculus [4]): 1 | Activity (Mus musculus [7]): 2 | Activity (Mus musculus [16]): 4

CNCC(NC)c1ccccc1 (centres undefined)
Activity (Mus musculus [2]): 0 | Activity (Mus musculus [10]): 2 | Activity (Mus musculus [3]): 0

CC(=O)NC(C)C(=O)NCc1ccccc1 (centres undefined)
ED50 (Mus musculus [9]): 77 mg/kg | Activity (Mus musculus [4]): 1 | Activity (Mus musculus [11]): 3 | Activity (Mus musculus [3]): 0

CN1C(=O)CNC1=O
Activity (Mus musculus [1]): 0 | Activity (Mus musculus [2]): 0 | Activity (Mus musculus [3]): 0

COc1cc2c(cc1OC)C1N(CC2)C(=O)NC1(C)C (centres undefined)
Activity (Mus musculus [4]): 1 | Activity (Mus musculus [2]): 0 | Activity (Mus musculus [3]): 0

CNC(=O)C(NC(C)=O)c1ccccc1 (centres undefined)
Activity (Mus musculus [1]): 0 | Activity (Mus musculus [2]): 0 | Activity (Mus musculus [3]): 0

CC1C(=O)N(C)C(=O)N1C (centres undefined)
Activity (Mus musculus [1]): 0 | Activity (Mus musculus [2]): 0 | Activity (Mus musculus [7]): 2

CC1(C)NC(=O)N(CCc2ccccc2)C1O (centres undefined)
Activity (Mus musculus [4]): 1 | Activity (Mus musculus [5]): 1 | Activity (Mus musculus [6]): 1

CC1NC(=O)N(C)C1O (centres undefined)
Activity (Mus musculus [1]): 0 | Activity (Mus musculus [2]): 0 | Activity (Mus musculus [3]): 0

O=C1NC(c2ccccc2)C(=O)N1c1ccccc1 (centres undefined)
Activity (Mus musculus [1]): 0 | Activity (Mus musculus [2]): 0 | Activity (Mus musculus [3]): 0

CC1(C)NC(=O)N2C=Cc3ccccc3C21 (centres undefined)
Activity (Mus musculus [10]): 2 | Activity (Mus musculus [7]): 2 | Activity (Mus musculus [8]): 2

CN1CC(c2ccccc2)NC1=O (centres undefined)
Activity (Mus musculus [10]): 2 | Activity (Mus musculus [8]): 2 | Activity (Mus musculus [6]): 1

Cc1cn(Cc2ccccc2)c(O)n1
ED50 (Mus musculus [9]): 90 mg/kg | Activity (Mus musculus [4]): 1 | Activity (Mus musculus [7]): 2 | Activity (Mus musculus [8]): 2 | TD50 [12]: 268 mg/kg

CC(N)C(=O)NCc1ccccc1 (centres undefined)
Activity (Mus musculus [10]): 2 | Activity (Mus musculus [8]): 2 | Activity (Mus musculus [3]): 0

O=C1CNC(=O)N1c1ccccc1
Activity (Mus musculus [1]): 0 | Activity (Mus musculus [5]): 1 | Activity (Mus musculus [3]): 0

Cn1cc(-c2ccccc2)nc1O
Activity (Mus musculus [1]): 0 | Activity (Mus musculus [5]): 1 | Activity (Mus musculus [6]): 1

CCC1(c2ccccc2)NC(=O)N(C)C1=O (centres undefined) [MEPHENYTOIN]
ED50 (Mus musculus [9]): 61 mg/kg | ED50 (Mus musculus [13]): 31 mg/kg

Cc1cn(C)c(=O)n1C
Activity (Mus musculus [1]): 0 | Activity (Mus musculus [2]): 0 | Activity (Mus musculus [3]): 0
